What was measured:
Assay type in all cases: cell-based, Streptococcus mutans
S. mutans = assay: Growth inhibition of S. mutans in culture by neat solutions of xylitol and/or arginine; conditions: 24 hours after administration of neat solutions, absence of added sucrose
Protocol: The ability of xylitol to inhibit the growth of S. mutans is tested in combination with arginine in culture. Percent growth inhibition is measured at 24 hours after administration of the neat solutions listed in the below table.
Results in Table 2 are obtained in the absence of added sucrose.

S. mutans biofilm [1] = assay: pH drop of S. mutans biofilm from glycolysis (total AUC of delta pH); conditions: for Total AUC of Δ pH: after 24 hours of exposure and addition of growth media, lower AUC = less pH reduction; for Δ (vs control) of total AUC of Δ pH: difference from control (no arginine or xylitol) AUC 29.5
Source text: Such drops in pH can be harmful to the health of the oral cavity.

planktonic S. mutans = assay: Minimum inhibitory concentration of xylitol, planktonic S. mutans growth (OD 610 nm); conditions: for growth of S. mutans, optical density (OD 610 nm), mean: 24 hours of exposure
Protocol: Determining Minimum Inhibitory Concentration (MIC) of Xylitol: In a separate experiment, simple solutions with only xylitol at varying concentrations, tested in combination with a control, are also tested to determine the minimum inhibitor concentration of xylitol needed to inhibit planktonic S. mutans growth in culture.

S. mutans biofilm [2] = assay: S. mutans biofilm formation by crystal violet staining (OD 590 nm); conditions: for S. mutans biofilm formation, crystal violet staining (OD 590 nm), mean: 24 hours of exposure
Protocol: Determining Biofilm Formation with varying amounts of Xylitol: In a separate experiment, simple solutions with only xylitol at varying concentrations, tested in combination with a control, are also tested to determine the minimum amount of xylitol needed to prevent S. mutans biofilm accretion in culture. It is determined that at least 5% xylitol is necessary to inhibit biofilm accretion in culture after 24 hours of exposure.

[3] = in culture after 24 hours of exposure

N=C(N)NCCC[C@H](N)C(=O)O [1.5% arginine, arginine]
% growth inhibition relative to control (S. mutans): 4.1% | Total AUC of Δ pH (S. mutans biofilm [1]): 28.9 | Δ (vs control) of total AUC of Δ pH (S. mutans biofilm [1]): 0.6

OC[C@@H](O)[C@H](O)[C@@H](O)CO [Xylitol]
% growth inhibition relative to control (S. mutans; listed as 1% xylitol): 17.9% | % growth inhibition relative to control (S. mutans; listed as 5% xylitol): 40.3% | % growth inhibition relative to control (S. mutans; listed as 10% xylitol): 45.6% | minimum inhibitory concentration of xylitol needed to inhibit planktonic S. mutans growth (planktonic S. mutans; [3]): at least 10% | growth of S. mutans, optical density (OD 610 nm), mean (planktonic S. mutans; xylitol 0.15625%): 0.256 | growth of S. mutans, optical density (OD 610 nm), mean (planktonic S. mutans; xylitol 0.3125%): 0.268 | growth of S. mutans, optical density (OD 610 nm), mean (planktonic S. mutans; xylitol 0.625%): 0.241 | growth of S. mutans, optical density (OD 610 nm), mean (planktonic S. mutans; xylitol 1.25%): 0.188 | growth of S. mutans, optical density (OD 610 nm), mean (planktonic S. mutans; xylitol 2.5%): 0.165 | growth of S. mutans, optical density (OD 610 nm), mean (planktonic S. mutans; xylitol 5%): 0.114 | growth of S. mutans, optical density (OD 610 nm), mean (planktonic S. mutans; xylitol 10%): 0.097 | growth of S. mutans, optical density (OD 610 nm), mean (planktonic S. mutans; xylitol 20%): 0.089 | growth of S. mutans, optical density (OD 610 nm), mean (planktonic S. mutans; xylitol 40%): 0.071 | minimum amount of xylitol needed to prevent S. mutans biofilm accretion (S. mutans biofilm [2]; [3]): at least 5% | S. mutans biofilm formation, crystal violet staining (OD 590 nm), mean (S. mutans biofilm [2]; xylitol 0.15625%): 0.327 | S. mutans biofilm formation, crystal violet staining (OD 590 nm), mean (S. mutans biofilm [2]; xylitol 0.3125%): 0.338 | S. mutans biofilm formation, crystal violet staining (OD 590 nm), mean (S. mutans biofilm [2]; xylitol 0.625%): 0.301 | S. mutans biofilm formation, crystal violet staining (OD 590 nm), mean (S. mutans biofilm [2]; xylitol 1.25%): 0.254 | S. mutans biofilm formation, crystal violet staining (OD 590 nm), mean (S. mutans biofilm [2]; xylitol 2.5%): 0.221 | S. mutans biofilm formation, crystal violet staining (OD 590 nm), mean (S. mutans biofilm [2]; xylitol 5%): 0.136 | S. mutans biofilm formation, crystal violet staining (OD 590 nm), mean (S. mutans biofilm [2]; xylitol 10%): 0.122 | S. mutans biofilm formation, crystal violet staining (OD 590 nm), mean (S. mutans biofilm [2]; xylitol 20%): 0.123 | S. mutans biofilm formation, crystal violet staining (OD 590 nm), mean (S. mutans biofilm [2]; xylitol 40%): 0.109 | Total AUC of Δ pH (S. mutans biofilm [1]; listed as 1% xylitol): 27.8 | Total AUC of Δ pH (S. mutans biofilm [1]; listed as 5% xylitol): 25.3 | Total AUC of Δ pH (S. mutans biofilm [1]; listed as 10% xylitol): 24.0 | Δ (vs control) of total AUC of Δ pH (S. mutans biofilm [1]; listed as 1% xylitol): 1.7 | Δ (vs control) of total AUC of Δ pH (S. mutans biofilm [1]; listed as 5% xylitol): 4.2 | Δ (vs control) of total AUC of Δ pH (S. mutans biofilm [1]; listed as 10% xylitol): 5.5

Source: US20260248752A1, “Oral Care Product And Methods Of Use And Manufacture Thereof” (Colgate-Palmolive Company, priority 2019, published 2026)
